This is an account of results in ChEMBL document CHEMBL4765259, “Synthesis and biological evaluation of novel shikonin-benzo[b]furan derivatives as tubulin polymerization inhibitors targeting the colchicine binding site” (Eur J Med Chem, 2020).

Molecules are shown by their SMILES.

For data set [1], the system named is MCF7. Kind of data set: cells. To be noted: Homo sapiens, MCF7, 48 h.
Description: Antiproliferative activity against drug-resistant human MCF7 cells incubated for 48 hrs by MTT assay
A further data set has as its system MDA-MB-231. Kind of data set: cells. To be noted: Homo sapiens, MDA-MB-231, 48 h.
Data set [2] concerns HT-29. Kind of data set: Antiproliferative activity against human HT29 cells incubated for 48 hrs by MTT assay. To be noted: HT-29, 48 h. Format: functional, cell-based.
The species named for data set [3] is Homo sapiens. Kind of data set: Inhibition of [3H]colchicine binding to tubulin (unknown origin) at 2 uM incubated for 2 hrs by scintillation counting method relative to control.
A short description of data set [4]: Antiproliferative activity against human LO2 cells incubated for 48 hrs by MTT assay. Format: cell-based, L02.
The subject of data set [5] is K562. Put plainly: Antiproliferative activity against drug resistant human K562 cells incubated for 48 hrs by MTT assay. Format: functional, cell-based. To be noted: K562, 48 h.
Data set [6] is described as follows: Antiproliferative activity against human HEK293T cells incubated for 48 hrs by MTT assay. The data set is classed as cell-based, HEK-293T.
Data set [7] deals with MCF7. Kind of data set: cells. To be noted: Homo sapiens, MCF7, 48 h. The source holds these as a separate data set.
For another data set, the system named is A549. Kind of data set: cells. To be noted: Homo sapiens, A549, 48 h.
The nature of data set [8]: Inhibition of tubulin polymerization (unknown origin) measured every 2 mins for 60 mins by spectrophotometric method. Set-up: species or system Homo sapiens.
The species named for data set [9] is Homo sapiens. Kind of data set: Inhibition of [3H]colchicine binding to tubulin (unknown origin) at 4 uM incubated for 2 hrs by scintillation counting method relative to control.
The test system of another data set is HCT-116. Put plainly: cells. To be noted: Homo sapiens, HCT-116, 48 h.
A further data set concerns HepG2. Kind of data set: Antiproliferative activity against human HepG2 cells incubated for 48 hrs by MTT assay. The data set is classed as functional, cell-based. To be noted: HepG2, 48 h.
For data set [10], the system named is K562. Put plainly: cells. To be noted: Homo sapiens, K562, 48 h.
Description: Antiproliferative activity against human K562 cells incubated for 48 hrs by MTT assay
Data set [11] deals with HT-29. Kind of data set: Induction of apoptosis in human HT-29 cells assessed as early apoptotic cells at 1 uM measured after 24 hrs by Annexin V-FITC/propidium iodide staining based flow cytometry (reference value: 1.1 %). Format: functional.
For data set [12], the system named is HT-29. Kind of data set: Cell cycle arrest in human HT29 cells assessed as cell accumulation at G2 phase at 0.5 uM incubated for 24 hrs by propidium iodide staining based flow cytometry (reference value: 12.53 %). Format: functional.
Data set [13] deals with HT-29. Put plainly: Cell cycle arrest in human HT29 cells assessed as cell accumulation at G2 phase at […] incubated for 24 hrs by propidium iodide staining based flow cytometry (reference value: 12.53 %). Format: functional. To be noted: dose 0.25 µM.
The test system of data set [14] is HT-29. Kind of data set: Induction of apoptosis in human HT-29 cells assessed as late apoptotic cells at […] measured after 24 hrs by Annexin V-FITC/propidium iodide staining based flow cytometry (reference value: 0.5 %). The data set is classed as functional. To be noted: dose 0.25 µM.
The test system of data set [15] is HT-29. Kind of data set: Cell cycle arrest in human HT29 cells assessed as cell accumulation at S phase at 0.5 uM incubated for 24 hrs by propidium iodide staining based flow cytometry (reference value: 17.15 %). Format: functional.
Data set [16] concerns HT-29. Kind of data set: Induction of apoptosis in human HT-29 cells assessed as early apoptotic cells at 0.5 uM measured after 24 hrs by Annexin V-FITC/propidium iodide staining based flow cytometry (reference value: 1.1 %). Format: functional.
Data set [17] relates to HT-29. Kind of data set: Induction of apoptosis in human HT-29 cells assessed as late apoptotic cells at 1 uM measured after 24 hrs by Annexin V-FITC/propidium iodide staining based flow cytometry (reference value: 0.5 %). The data set is classed as functional.
Data set [18] relates to HT-29. Kind of data set: Cell cycle arrest in human HT29 cells assessed as cell accumulation at S phase at […] incubated for 24 hrs by propidium iodide staining based flow cytometry (reference value: 17.15 %). The data set is classed as functional. To be noted: dose 0.25 µM.
Data set [19] concerns HT-29. Kind of data set: Cell cycle arrest in human HT29 cells assessed as cell accumulation at S phase at 1 uM incubated for 24 hrs by propidium iodide staining based flow cytometry (reference value: 17.15 %). The data set is classed as functional.
In data set [20] the test system is HT-29. Kind of data set: Induction of apoptosis in human HT-29 cells assessed as viable cells at 0.5 uM measured after 24 hrs by Annexin V-FITC/propidium iodide staining based flow cytometry (reference value: 97.7 %). The data set is classed as functional. To be noted: read-out: Activity.
Data set [21] concerns HT-29. Put plainly: Induction of apoptosis in human HT-29 cells assessed as necrotic cells at […] measured after 24 hrs by Annexin V-FITC/propidium iodide staining based flow cytometry (reference value: 0.7 %). The data set is classed as functional. To be noted: dose 0.25 µM.
Data set [22] relates to HT-29. Kind of data set: Cell cycle arrest in human HT29 cells assessed as cell accumulation at G2 phase at 1 uM incubated for 24 hrs by propidium iodide staining based flow cytometry (reference value: 12.53 %). The data set is classed as functional.
Data set [23] deals with HT-29. Put plainly: Induction of apoptosis in human HT-29 cells assessed as necrotic cells at 0.5 uM measured after 24 hrs by Annexin V-FITC/propidium iodide staining based flow cytometry (reference value: 0.7 %). Format: functional.
Data set [24] deals with HT-29. Kind of data set: Induction of apoptosis in human HT-29 cells assessed as early apoptotic cells at […] measured after 24 hrs by Annexin V-FITC/propidium iodide staining based flow cytometry (reference value: 1.1 %). The data set is classed as functional. To be noted: dose 0.25 µM.
The subject of data set [25] is HT-29. Put plainly: Induction of apoptosis in human HT-29 cells assessed as viable cells at 1 uM measured after 24 hrs by Annexin V-FITC/propidium iodide staining based flow cytometry (reference value: 97.7 %). The data set is classed as functional. To be noted: read-out: Activity.
For data set [26], the system named is HT-29. Put plainly: Induction of apoptosis in human HT-29 cells assessed as necrotic cells at 1 uM measured after 24 hrs by Annexin V-FITC/propidium iodide staining based flow cytometry (reference value: 0.7 %). Format: functional.
Data set [27] concerns HT-29. Put plainly: Cell cycle arrest in human HT29 cells assessed as cell accumulation at G1 phase at 0.5 uM incubated for 24 hrs by propidium iodide staining based flow cytometry (reference value: 70.33 %). The data set is classed as functional.
Data set [28] relates to HT-29. Put plainly: Cell cycle arrest in human HT29 cells assessed as cell accumulation at G1 phase at […] incubated for 24 hrs by propidium iodide staining based flow cytometry (reference value: 70.33 %). To be noted: dose 0.25 µM. The data set is classed as functional.
The test system of data set [29] is HT-29. Put plainly: Induction of apoptosis in human HT-29 cells assessed as late apoptotic cells at 0.5 uM measured after 24 hrs by Annexin V-FITC/propidium iodide staining based flow cytometry (reference value: 0.5 %). The data set is classed as functional.
For data set [30], the system named is HT-29. Put plainly: Cell cycle arrest in human HT29 cells assessed as cell accumulation at G1 phase at 1 uM incubated for 24 hrs by propidium iodide staining based flow cytometry (reference value: 70.33 %). Format: functional.
Data set [31] concerns HT-29. Put plainly: Induction of apoptosis in human HT-29 cells assessed as viable cells at […] measured after 24 hrs by Annexin V-FITC/propidium iodide staining based flow cytometry (reference value: 97.7 %). The data set is classed as functional. To be noted: dose 0.25 µM, read-out: Activity.

Description for HCT-116: Antiproliferative activity against human HCT116 cells incubated for 48 hrs by MTT assay

For the compound `COc1ccc(/C=C\c2cc(OC)c(OC)c(OC)c2)cc1O` [COMBRETASTATIN A4], the concentration for half-maximal inhibition (IC50) with MCF7 [1] is 0.49 µM; in the data set with MDA-MB-231, 90 nM; in the data set with HT-29 [2] it was 310 nM; in the data set with K562 [5], 6.15 µM; in the data set with MCF7 [7] it was 250 nM; in the data set on A549 it was 0.23 µM. Moreover, the concentration for half-maximal inhibition (IC50) in data set [8] was 1120 nM; with HCT-116, 110 nM; in the data set with HepG2, 270 nM; in the data set on K562 [10] it was 610 nM. Besides, the inhibition in the data set listed under Homo sapiens [3] came out at 81.5%; in the data set listed under Homo sapiens [9], 93%. Also, the CC50 at 48 h in data set [4] was determined as 0.36 µM; in data set [6], 1.44 µM.
Take `COc1cccc2c1C(=O)c1c(O)c3c(c(O)c1C2=O)C[C@@](O)(C(=O)CO)C[C@@H]3O[C@H]1C[C@H](N)[C@H](O)[C@H](C)O1` [DOXORUBICIN]: the 50% inhibitory concentration (IC50) with K562 [5] worked out at 16.3 µM; in the data set with K562 [10] it was 210 nM.
In the case of `CC(C)=CC[C@@H](O)C1=CC(=O)c2c(O)ccc(O)c2C1=O` [SHIKONIN], the Activity in the data set on HT-29 [11] is reported as 19.5%; with HT-29 [12], 22.9%; in the data set on HT-29 [13] it was 19.5%; in the data set with HT-29 [14] it was 0.7%; in the data set on HT-29 [15], 27.08%; with HT-29 [16], 11.9%. In addition, the Activity turned out to be 3.2% in the data set on HT-29 [17]; 28.1% with HT-29 [18]; 43.57% in the data set on HT-29 [19]; 1.2% in the data set with HT-29 [21]; 24.51% in the data set on HT-29 [22]; 0.7% in the data set on HT-29 [23]. For the same compound, the Activity with HT-29 [24] stood at 7.1%; with HT-29 [26], 0.6%; in the data set on HT-29 [27], 50.02%; in the data set with HT-29 [28] it was 52.4%; with HT-29 [29], 0.4%; in the data set with HT-29 [30], 32.11%. Further, the IC50 came to 23.4 µM in the data set with MCF7 [1]; 2770 nM in the data set on MDA-MB-231; 2800 nM in the data set with HT-29 [2]; 121 µM in the data set on K562 [5]; 5400 nM in the data set on MCF7 [7]; 10.2 µM in the data set on A549. In addition, the IC50 was 2470 nM in the data set with HCT-116, 2920 nM in the data set on HepG2 and 20300 nM in the data set with K562 [10]. The 50% cytotoxic concentration (CC50) at 48 h turned out to be 11.8 µM in [4] and 7 µM in [6]. Further, in the data set on HT-29 [20], the viability at 0.5 µM was determined as 87%. In the data set with HT-29 [25], the viability at 1 µM was 76.7%. In the data set with HT-29 [31], the viability at […] was found to be 91%.
